Source: patent US10954269B2, “Anti-inflammatory tripeptides” (Dr. August Wolff Gmbh & Co. KG Arzneimittel, priority 2013, dated 2021)

Assays:
primary murine T-cells = experiment: Cytokine secretion on protein level in activated primary murine T-cells (13-plex FACS / Luminex, supernatant); assay type: cell-based, C57BL/6 mice; conditions: substance 10^−9M
Outline: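 T-cells from secondary lymphatic organs of naïve C57BL/6 mice, stimulated with PMA/Ionomycin or IFN-γ; supernatant cytokines measured by 13-plex FACS 48 h and 72 h after stimulation. In another run, PMA/Ionomycin-stimulated cells received compounds at 10^−7, 10^−9 and 10^−11 M, with IFN-γ, IL-17 and IL-10 measured by Luminex.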

primary human T-cells = experiment: Cytokine secretion on protein level in activated primary human T-cells (13-plex FACS / Luminex, supernatant); assay type: cell-based; conditions: substance 10^−9M
Outline: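 Cytokine protein in supernatant is read by multiplex FACS or Luminex. Tripeptide-treated HaCaT cells or blood-derived human T-cells are stimulated beforehand with PMA/Ionomycin or IFN-γ. The most relevant analytes are IL-1, IL-2, IL-6, IL-12p70, IL-17, IFN-γ and TNF-α, sampled 48 h and 72 h after stimulation.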

[1] = primary murine T-cells stimulated with IFN-γ
[2] = primary murine T-cells stimulated with PBS
[3] = primary murine T-cells stimulated with PMA/Ionomycin
[4] = primary human T-cells stimulated with IFN-γ
[5] = primary human T-cells stimulated with PBS

For `COc1c(C)c2c(c(O)c1C/C=C(\C)CCC(=O)OCCN1CCOCC1)C(=O)OC2` [MMF, mycophenolate mofetil, reference compound], the IL-1 cytokine concentration (primary murine T-cells; [1]) was 100.02 pg/mL, the IL-2 cytokine concentration (primary murine T-cells; [1]) was 79.63 pg/mL and the IL-4 cytokine concentration (primary murine T-cells; [1]) was 59.48 pg/mL. It also gave an IL-5 cytokine concentration (primary murine T-cells; [1]) of 254.61 pg/mL, an IL-6 cytokine concentration (primary murine T-cells; [1]) of 111.95 pg/mL and an IL-10 cytokine concentration (primary murine T-cells; [1]) of 936.45 pg/mL. The IL-13 cytokine concentration (primary murine T-cells; [1]) was 0 pg/mL, the IL-17 cytokine concentration (primary murine T-cells; [1]) was 61.58 pg/mL and the IL-21 cytokine concentration (primary murine T-cells; [1]) was 0 pg/mL. The IL-22 cytokine concentration (primary murine T-cells; [1]) was 55.98 pg/mL, the IL-27 cytokine concentration (primary murine T-cells; [1]) was 40.8 pg/mL and the TNF-α cytokine concentration (primary murine T-cells; [1]) was 33.64 pg/mL. The IFN-γ cytokine concentration (primary murine T-cells; [2]) was 0 pg/mL, the IL-1 cytokine concentration (primary murine T-cells; [2]) was 62.31 pg/mL and the IL-2 cytokine concentration (primary murine T-cells; [2]) was 100.77 pg/mL. The IL-4 cytokine concentration (primary murine T-cells; [2]) was 61.12 pg/mL, the IL-5 cytokine concentration (primary murine T-cells; [2]) was 337.89 pg/mL and the IL-6 cytokine concentration (primary murine T-cells; [2]) was 90.56 pg/mL. The IL-10 cytokine concentration (primary murine T-cells; [2]) was 745.12 pg/mL, the IL-13 cytokine concentration (primary murine T-cells; [2]) was 0 pg/mL and the IL-17 cytokine concentration (primary murine T-cells; [2]) was 0 pg/mL. It also gave an IL-21 cytokine concentration (primary murine T-cells; [2]) of 0 pg/mL, an IL-22 cytokine concentration (primary murine T-cells; [2]) of 90.45 pg/mL and an IL-27 cytokine concentration (primary murine T-cells; [2]) of 80.11 pg/mL. The TNF-α cytokine concentration (primary murine T-cells; [2]) was 88.47 pg/mL, the IFN-γ cytokine concentration (primary murine T-cells; [3]) was 1808.99 pg/mL and the IL-1 cytokine concentration (primary murine T-cells; [3]) was 158.59 pg/mL. For the same compound, the IL-2 cytokine concentration (primary murine T-cells; [3]) was 109.88 pg/mL, the IL-4 cytokine concentration (primary murine T-cells; [3]) was 64.89 pg/mL and the IL-5 cytokine concentration (primary murine T-cells; [3]) was 200.98 pg/mL. It also gave an IL-6 cytokine concentration (primary murine T-cells; [3]) of 169.84 pg/mL, an IL-10 cytokine concentration (primary murine T-cells; [3]) of 995.6 pg/mL and an IL-13 cytokine concentration (primary murine T-cells; [3]) of 0 pg/mL. For the same compound, the IL-17 cytokine concentration (primary murine T-cells; [3]) was 67 pg/mL, the IL-21 cytokine concentration (primary murine T-cells; [3]) was 0 pg/mL and the IL-22 cytokine concentration (primary murine T-cells; [3]) was 111.98 pg/mL. It also gave an IL-27 cytokine concentration (primary murine T-cells; [3]) of 102.96 pg/mL, a TNF-α cytokine concentration (primary murine T-cells; [3]) of 50.14 pg/mL and an IL-1 cytokine concentration (primary human T-cells; [4]) of 0 pg/mL. It also gave an IL-2 cytokine concentration (primary human T-cells; [4]) of 0 pg/mL, an IL-4 cytokine concentration (primary human T-cells; [4]) of 0 pg/mL and an IL-5 cytokine concentration (primary human T-cells; [4]) of 0 pg/mL. It also gave an IL-6 cytokine concentration (primary human T-cells; [4]) of 62.15 pg/mL, an IL-9 cytokine concentration (primary human T-cells; [4]) of 0 pg/mL and an IL-10 cytokine concentration (primary human T-cells; [4]) of 0 pg/mL. For the same compound, the IL-12 cytokine concentration (primary human T-cells; [4]) was 0 pg/mL, the IL-13 cytokine concentration (primary human T-cells; [4]) was 0 pg/mL and the IL-17 cytokine concentration (primary human T-cells; [4]) was 0 pg/mL. The IL-22 cytokine concentration (primary human T-cells; [4]) was 0 pg/mL, the TNF-α cytokine concentration (primary human T-cells; [4]) was 0 pg/mL and the IFN-γ cytokine concentration (primary human T-cells; [5]) was 0 pg/mL. It also gave an IL-1 cytokine concentration (primary human T-cells; [5]) of 0 pg/mL, an IL-2 cytokine concentration (primary human T-cells; [5]) of 39.68 pg/mL and an IL-4 cytokine concentration (primary human T-cells; [5]) of 0 pg/mL. For the same compound, the IL-5 cytokine concentration (primary human T-cells; [5]) was 0 pg/mL, the IL-6 cytokine concentration (primary human T-cells; [5]) was 94.62 pg/mL and the IL-9 cytokine concentration (primary human T-cells; [5]) was 28.13 pg/mL.
